Measurements reported in patent US5292733A, “Cephalosporin compounds” (Lucky Limited, priority 1991, dated 1994).
In brackets after ≈: the same amount, converted by molar mass.

Legend:
Experiment in all cases: Antibacterial activity MIC, two-fold agar dilution
Format in all cases: cell-based
[1] = system: Acinetobacter calcoaceticus ATCC 15473; conditions: ATCC15473; Acinetobacter calcoaceticus ATCC 15473; Muller-Hinton agar, 37° C., 20 hours; read-out: Antibacterial Activity MIC
Protocol: (§1) These MIC values were taken by employing a two-fold dilution method: that is, two-fold serial dilutions of each of the test compounds were made and dispersed in a Muller-Hinton agar medium; 2 μl of the standard test strain which had the 10^7 CFU(Colony Forming Unit) per ml was inoculated on the medium; and these were incubated at 37° C. for 20 hours. The results of the MIC tests are shown Table 1.

[2] = system: Bacillus cereus ATCC 11778; conditions: ATCC11778; Bacillus cereus ATCC 11778; Muller-Hinton agar, 37° C., 20 hours; read-out: Antibacterial Activity MIC
Protocol: as §1

[3] = system: Bacillus megaterium ATCC 9885; conditions: Priestia megaterium, ATCC9885; Bacillus megaterium ATCC 9885; Muller-Hinton agar, 37° C., 20 hours; read-out: Antibacterial Activity MIC
Protocol: as §1

[4] = system: Citrobacter freundii ATCC 8090; conditions: ATCC8090; Citrobacter freundii ATCC 8090; Muller-Hinton agar, 37° C., 20 hours; read-out: Antibacterial Activity MIC
Protocol: as §1

[5] = system: Enterobacter aerogenes ATCC 29751; conditions: Klebsiella aerogenes, ATCC29751; Enterobacter aerogenes ATCC 29751; Muller-Hinton agar, 37° C., 20 hours; read-out: Antibacterial Activity MIC
Protocol: as §1

[6] = system: Enterobacter cloacae ATCC 27508; conditions: ATCC27508; Enterobacter cloacae ATCC 27508; Muller-Hinton agar, 37° C., 20 hours; read-out: Antibacterial Activity MIC
Protocol: as §1

[7] = system: Escherichia coli ATCC 10536; conditions: ATCC10536, Muller-Hinton agar, 37° C., 20 hours
Protocol: as §1

[8] = system: Escherichia coli ATCC 25922; conditions: ATCC25922, Muller-Hinton agar, 37° C., 20 hours
Protocol: as §1

[9] = system: Klebsiella pneumoniae ATCC 10031; conditions: ATCC10031; Klebsiella pneumoniae ATCC 10031; Muller-Hinton agar, 37° C., 20 hours; read-out: Antibacterial Activity MIC
Protocol: as §1

[10] = system: Micrococcus luteus ATCC 9341; conditions: ATCC9341; Micrococcus luteus ATCC 9341; Muller-Hinton agar, 37° C., 20 hours; read-out: Antibacterial Activity MIC
Protocol: as §1

[11] = system: Morganella morganii ATCC 8076h; conditions: ATCC8076H, Muller-Hinton agar, 37° C., 20 hours
Protocol: as §1

[12] = system: Proteus mirabilis ATCC 25933; conditions: ATCC25933; Proteus mirabilis ATCC 25933; Muller-Hinton agar, 37° C., 20 hours; read-out: Antibacterial Activity MIC
Protocol: as §1

[13] = system: Proteus vulgaris ATCC 6059; conditions: ATCC6059; Proteus vulgaris ATCC 6059; Muller-Hinton agar, 37° C., 20 hours; read-out: Antibacterial Activity MIC
Protocol: as §1

[14] = system: Providencia rettgeri ATCC 9250; conditions: ATCC9250, Muller-Hinton agar, 37° C., 20 hours
Protocol: as §1

[15] = system: Pseudomonas aeruginosa ATCC 10145; conditions: ATCC10145; Pseudomonas aeruginosa ATCC 10145; Muller-Hinton agar, 37° C., 20 hours; read-out: Antibacterial Activity MIC
Protocol: as §1

[16] = system: Pseudomonas aeruginosa ATCC 25619; conditions: ATCC25619; Pseudomonas aeruginosa ATCC 25619; Muller-Hinton agar, 37° C., 20 hours; read-out: Antibacterial Activity MIC
Protocol: as §1

[17] = system: Pseudomonas aeruginosa ATCC 27853; conditions: ATCC27853; Pseudomonas aeruginosa ATCC 27853; Muller-Hinton agar, 37° C., 20 hours; read-out: Antibacterial Activity MIC
Protocol: as §1

[18] = system: Salmonella typhimurium ATCC 14028; conditions: Salmonella enterica; Salmonella typhimurium ATCC 14028; Muller-Hinton agar, 37° C., 20 hours; read-out: Antibacterial Activity MIC
Protocol: as §1

[19] = system: Serratia marcescens ATCC 27117; conditions: ATCC27117; Serratia marcescens ATCC 27117; Muller-Hinton agar, 37° C., 20 hours; read-out: Antibacterial Activity MIC
Protocol: as §1

[20] = system: Shigella flexneri ATCC 11836; conditions: ATCC11836, Muller-Hinton agar, 37° C., 20 hours
Protocol: as §1

[21] = system: Shigella sonnei ATCC 11060; conditions: ATCC11060, Muller-Hinton agar, 37° C., 20 hours
Protocol: as §1

[22] = system: Staphylococcus aureus ATCC 10537; conditions: ATCC10537; Staphylococcus aureus ATCC 10537; Muller-Hinton agar, 37° C., 20 hours; read-out: Antibacterial Activity MIC
Protocol: as §1

[23] = system: Staphylococcus aureus ATCC 6538p; conditions: ATCC6538P; Staphylococcus aureus ATCC 6538p; Muller-Hinton agar, 37° C., 20 hours; read-out: Antibacterial Activity MIC
Protocol: as §1

[24] = system: Staphylococcus epidermidis ATCC 12228; conditions: ATCC12228; Staphylococcus epidermidis ATCC 12228; Muller-Hinton agar, 37° C., 20 hours; read-out: Antibacterial Activity MIC
Protocol: as §1

[25] = system: Streptococcus faecalis ATCC 29212; conditions: Enterococcus faecalis, ATCC29212; Streptococcus faecalis ATCC 29212; Muller-Hinton agar, 37° C., 20 hours; read-out: Antibacterial Activity MIC
Protocol: as §1

Q: Which results are given for `CC(C)(O/N=C(\C(=O)NC1C(=O)N2C(C(=O)[O-])=C(CSc3nc(N)nc(N)[n+]3-c3ccccc3)CS[C@H]12)c1csc(N)n1)C(=O)O` (stereo partly drawn) [Compound I-25, 7-[(Z)-2-(2-aminothiazol-4-yl) -2-(2-carboxyprop-2-oxyimino)acetamido]-3-(4,6-diamino-1-phenyl-1,3,5-triazinium-2-yl)thiomethyl-3-cephem-4-carboxylate]?
A: MIC [1]: 16 µg/mL (≈ 23.3 µM); MIC [2]: 128 µg/mL (≈ 186 µM); MIC [3]: 0.5 µg/mL (≈ 0.728 µM); MIC [4]: 0.5 µg/mL (≈ 0.728 µM); MIC [5]: 2 µg/mL (≈ 2.91 µM); MIC [6]: 0.13 µg/mL (≈ 0.189 µM); MIC [7]: 0.13 µg/mL (≈ 0.189 µM); MIC [8]: 0.25 µg/mL (≈ 0.364 µM); MIC [9]: 0.25 µg/mL (≈ 0.364 µM); MIC [10]: 0.5 µg/mL (≈ 0.728 µM); MIC [11]: ≤ 0.008 µg/mL; MIC [12]: 0.13 µg/mL (≈ 0.189 µM); MIC [13]: 0.13 µg/mL (≈ 0.189 µM); MIC [14]: ≤ 0.008 µg/mL; MIC [15]: 4 µg/mL (≈ 5.82 µM); MIC [16]: 1 µg/mL (≈ 1.46 µM); MIC [17]: 2 µg/mL (≈ 2.91 µM); MIC [18]: 0.25 µg/mL (≈ 0.364 µM); MIC [19]: 0.13 µg/mL (≈ 0.189 µM); MIC [20]: 0.13 µg/mL (≈ 0.189 µM); MIC [21]: 0.25 µg/mL (≈ 0.364 µM); MIC [22]: 4 µg/mL (≈ 5.82 µM); MIC [23]: 4 µg/mL (≈ 5.82 µM); MIC [24]: 4 µg/mL (≈ 5.82 µM); MIC [25]: > 128 µg/mL

Q: With `CC(O/N=C(\C(=O)N[C@@H]1C(=O)N2C(C(=O)[O-])=C(CSc3cc(N)nc(N)[n+]3C)CS[C@H]12)c1csc(N)n1)C(=O)O` (stereo partly drawn) [Compound I-3, (6R,7R)-7-[(Z)-2-(2-aminothiazol-4-yl)-2-(R,S-carboxyeth-1-oxyimino)acetamido]-3-(2,6-diamino-3-methylpyrimidinium-4-yl)thiomethyl-3-cephem-4-carboxylate] as the molecule, how does the MIC [1] read?
A: 2 µg/mL (≈ 3.28 µM)

Q: What about the MIC [2] of the same molecule?
A: 64 µg/mL (≈ 105 µM)

Q: What about the MIC [3] of the same molecule?
A: 0.25 µg/mL (≈ 0.41 µM)

Q: And the MIC [4]?
A: 0.13 µg/mL (≈ 0.213 µM)

Q: What about the MIC [5] of the same molecule?
A: 2 µg/mL (≈ 3.28 µM)

Q: And the MIC [6]?
A: 0.016 µg/mL (≈ 0.0262 µM)

Q: What about the MIC [7] of the same molecule?
A: 0.13 µg/mL (≈ 0.213 µM)

Q: And the MIC [8]?
A: 0.13 µg/mL (≈ 0.213 µM)

Q: And the MIC [9]?
A: 0.031 µg/mL (≈ 0.0508 µM)

Q: What about the MIC [10] of the same molecule?
A: 0.5 µg/mL (≈ 0.82 µM)

Q: What about the MIC [11] of the same molecule?
A: ≤ 0.008 µg/mL

Q: And the MIC [12]?
A: 0.31 µg/mL (≈ 0.508 µM)

Q: And the MIC [13]?
A: 0.063 µg/mL (≈ 0.103 µM)

Q: And the MIC [14]?
A: ≤ 0.008 µg/mL

Q: And the MIC [15]?
A: 1 µg/mL (≈ 1.64 µM)

Q: What about the MIC [16] of the same molecule?
A: 1 µg/mL (≈ 1.64 µM)

Q: And the MIC [17]?
A: 1 µg/mL (≈ 1.64 µM)

Q: And the MIC [18]?
A: 0.5 µg/mL (≈ 0.82 µM)

Q: And the MIC [19]?
A: 0.13 µg/mL (≈ 0.213 µM)

Q: What about the MIC [20] of the same molecule?
A: 0.031 µg/mL (≈ 0.0508 µM)

Q: And the MIC [21]?
A: 0.25 µg/mL (≈ 0.41 µM)

Q: What about the MIC [22] of the same molecule?
A: 4 µg/mL (≈ 6.56 µM)

Q: And the MIC [23]?
A: 4 µg/mL (≈ 6.56 µM)

Q: What about the MIC [24] of the same molecule?
A: 2 µg/mL (≈ 3.28 µM)

Q: And the MIC [25]?
A: > 128 µg/mL

Q: Which results are given for `CO/N=C(\C(=O)N[C@@H]1C(=O)N2C(C(=O)[O-])=C(CSc3cc(N)nc(N)[n+]3C)CS[C@H]12)c1csc(N)n1` [Compound I-7, (6R,7R)-7-[(Z)-2-(2-aminothiazol-4-yl)-2-(methoxyimino)acetamido]-3-(2,6-diamino-3-methylpyrimidinium-4-yl)thiomethyl-3-cephem-4-carboxylate]?
A: MIC [1]: 8 µg/mL (≈ 14.5 µM); MIC [2]: 64 µg/mL (≈ 116 µM); MIC [3]: 0.13 µg/mL (≈ 0.236 µM); MIC [4]: 0.25 µg/mL (≈ 0.453 µM); MIC [5]: 0.5 µg/mL (≈ 0.906 µM); MIC [6]: 0.016 µg/mL (≈ 0.029 µM); MIC [7]: 0.13 µg/mL (≈ 0.236 µM); MIC [8]: 0.13 µg/mL (≈ 0.236 µM); MIC [9]: 0.016 µg/mL (≈ 0.029 µM); MIC [10]: 0.063 µg/mL (≈ 0.114 µM); MIC [11]: 0.016 µg/mL (≈ 0.029 µM); MIC [12]: 0.031 µg/mL (≈ 0.0562 µM); MIC [13]: 0.063 µg/mL (≈ 0.114 µM); MIC [14]: ≤ 0.008 µg/mL; MIC [15]: 64 µg/mL (≈ 116 µM); MIC [16]: 2 µg/mL (≈ 3.63 µM); MIC [17]: 32 µg/mL (≈ 58 µM); MIC [18]: 1 µg/mL (≈ 1.81 µM); MIC [19]: 0.5 µg/mL (≈ 0.906 µM); MIC [20]: 0.063 µg/mL (≈ 0.114 µM); MIC [21]: 0.5 µg/mL (≈ 0.906 µM); MIC [22]: 1 µg/mL (≈ 1.81 µM); MIC [23]: 2 µg/mL (≈ 3.63 µM); MIC [24]: 0.5 µg/mL (≈ 0.906 µM); MIC [25]: > 128 µg/mL
